According to paper PMC3107525 (The Journal of neuroscience : the official journal of the …, 2011):
Read-outs that look alike come from different tables or passages of the source.

Columns and labels:
SERT = SERT (Rattus norvegicus, UniProt P31652); type: in vivo; conditions: exogenously applied, anesthetized rats, mean ± SEM, n = 10
hSERT Y95F/C109A/I179C = hSERT Y95F/C109A/I179C (Homo sapiens, UniProt P31645, C109A/I179C/Y95F); test: Uptake with MTSET-sensitive mutant in COS-7 cells; type: cell-based
hSERT WT [1] = target: T1, hSERT WT (Homo sapiens, UniProt P31645)
hSERT Y95F [2] = target: T2, hSERT Y95F (Homo sapiens, UniProt P31645, Y95F)
hSERT WT [3] = target: T1, hSERT WT; conditions: gluconate substituted for Cl-
hSERT WT [4] = target: T1, hSERT WT; remark: listed apart in the source
hSERT WT [5] = target: T1, hSERT WT; conditions: 0.2-0.5 nM [125I]RTI-55, 1 hour on ice
hSERT WT [6] = target: T1, hSERT WT; conditions: 20 μM 5HT or 2 mM DA extracellular
hSERT D98G = hSERT D98G (Homo sapiens, UniProt P31645, D98G)
hSERT WT [7] = target: T1, hSERT WT; remark: listed apart in the source
hSERT Y95F [8] = target: T2, hSERT Y95F; remark: listed apart in the source
DAT = DAT (Rattus norvegicus, UniProt P23977); type: in vivo; conditions: 10 mg/kg i.p., dorsal striatum
NCCc1ccc(O)c(O)c1 = test: cells, lysate or membranes; conditions: other: substrate uptake, COS-7, 96 well plates, 10 min, room temperature; pH 7.4
[9] = substrate uptake, COS-7, 96 well plates, 10 min, room temperature
[10] = read-out: IC50 for inhibition of [3H]5HT uptake
[11] = read-out: IC50 for inhibition of [3H]DA uptake

Chain of SERT (P31652 whole entry): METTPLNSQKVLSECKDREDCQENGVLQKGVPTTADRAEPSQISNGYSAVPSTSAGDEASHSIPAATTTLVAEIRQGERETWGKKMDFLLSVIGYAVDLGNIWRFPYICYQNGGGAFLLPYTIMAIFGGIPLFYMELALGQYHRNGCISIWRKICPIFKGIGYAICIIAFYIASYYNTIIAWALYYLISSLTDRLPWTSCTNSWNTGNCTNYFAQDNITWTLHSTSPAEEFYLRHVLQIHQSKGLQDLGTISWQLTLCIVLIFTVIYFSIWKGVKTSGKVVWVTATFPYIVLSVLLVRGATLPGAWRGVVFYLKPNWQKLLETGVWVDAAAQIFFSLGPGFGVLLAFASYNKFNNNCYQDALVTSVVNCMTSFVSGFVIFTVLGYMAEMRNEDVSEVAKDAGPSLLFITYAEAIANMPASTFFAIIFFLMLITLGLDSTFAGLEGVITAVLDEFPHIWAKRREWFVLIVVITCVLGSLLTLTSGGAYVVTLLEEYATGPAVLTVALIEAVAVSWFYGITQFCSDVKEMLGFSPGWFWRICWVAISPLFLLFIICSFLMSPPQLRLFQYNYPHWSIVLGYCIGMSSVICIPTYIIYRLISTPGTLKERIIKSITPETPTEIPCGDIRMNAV
Chain of DAT (P23977 whole entry): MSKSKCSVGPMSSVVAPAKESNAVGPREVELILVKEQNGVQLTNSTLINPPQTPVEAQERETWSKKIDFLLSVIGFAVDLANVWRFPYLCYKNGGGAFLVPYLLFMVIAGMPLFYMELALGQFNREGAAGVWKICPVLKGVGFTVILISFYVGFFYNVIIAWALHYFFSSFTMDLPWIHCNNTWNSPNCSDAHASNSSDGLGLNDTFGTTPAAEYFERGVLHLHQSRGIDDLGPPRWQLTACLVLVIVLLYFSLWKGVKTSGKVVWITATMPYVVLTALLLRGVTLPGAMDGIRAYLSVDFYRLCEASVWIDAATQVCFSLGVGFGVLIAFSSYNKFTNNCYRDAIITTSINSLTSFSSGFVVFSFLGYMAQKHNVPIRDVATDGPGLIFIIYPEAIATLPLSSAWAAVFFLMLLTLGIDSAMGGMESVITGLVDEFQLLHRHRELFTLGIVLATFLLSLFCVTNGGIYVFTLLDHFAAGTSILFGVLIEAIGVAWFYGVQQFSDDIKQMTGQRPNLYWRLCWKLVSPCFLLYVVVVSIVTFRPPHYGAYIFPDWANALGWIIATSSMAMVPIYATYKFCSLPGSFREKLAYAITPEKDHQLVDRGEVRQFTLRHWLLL

With NCCc1ccc(O)c(O)c1 [DA, dopamine] the “baseline clearance time (T80)” value (SERT) was 79.5 ± 4.1 s, the “transport of DA” value (hSERT Y95F/C109A/I179C; before or after MTSET treatment) was under 2% and the Vmax (hSERT WT [1]; [9]) was 2.7 ± 0.65 pmol/well/min. The “Vmax for DA transport relative to Vmax for 5HT transport” value (hSERT WT [1]; times higher) was 4–5 times, the Vmax (hSERT Y95F [2]; [9]) was 2.4 ± 0.52 pmol/well/min and the “Vmax for DA transport relative to Vmax for 5HT transport” value (hSERT Y95F [2]; times higher) was 4–5 times. For the same compound, the “apparent affinity for Cl- in substrate transport” value (hSERT WT [3]) was ~ 100 mM, the “mode of inhibition of 5HT uptake” value (hSERT WT [4]) was “competitive inhibitor” and the “relation of 5HT and DA binding sites” value (hSERT WT [5]) was “mutually exclusive”. The “efflux of preloaded [3H]5HT” value (hSERT WT [6]) was “substantial and comparable efflux”, the “efflux of preloaded [3H]DA” value (hSERT WT [6]) was “no significant efflux” and the DA uptake activity (hSERT D98G) was “no DA uptake activity”.
Work on CNC(C)Cc1ccc2c(c1)OCO2 (centres unmarked) [MDMA, 3,4-methylenedioxymethamphetamine] yielded an IC50 (hSERT WT [7]; [10]) of 4.4 ± 0.84 µM, an IC50 (hSERT WT [7]; [11]) of 2.7 ± 0.33 µM and an IC50 (hSERT Y95F [8]; [10]) of 3100 ± 430 nM. For the same compound, the IC50 (hSERT Y95F [8]; [11]) was 940 ± 110 nM.
With C[N+](C)(C)CCSS(C)(=O)=O [MTSET, [2-(trimethylammonium)ethyl] methane-thiosulfonate] the “decrease of 5HT uptake activity” value (hSERT Y95F/C109A/I179C; 10 mM MTSET, 10 min) was over 90%.
CN(C)CCCC1(c2ccc(F)cc2)OCc2cc(C#N)ccc21 (centres unmarked) [Citalopram, citalopram] was tested, and the “effect on DA clearance time (T80)” value (DAT) was “unaffected”.
Compound hSERT WT (Homo sapiens) has a Km (NCCc1ccc(O)c(O)c1) of 78 ± 5.7 µM.
NCCc1c[nH]c2ccc(O)cc12 [5HT, serotonin] was tested, and the “baseline clearance time (T80)” value (SERT) was 73.4 ± 8.3 s.
